Consider seven molecules from ChEMBL document CHEMBL1221260, “Discovery of cannabinoid-1 receptor antagonists by virtual screening” (Bioorg Med Chem Lett, 2010).

Some results are limits rather than exact numbers.

In series [1] the target is Cannabinoid receptor 1 (Homo sapiens, UniProt P21554). The series is described as follows: Inhibition of human CB1 receptor expressed in CHOK1 cells by luciferase reporter gene assay. The format is cell-based. The arrangement: concentration or dose not given beside the values. The conditions noted are these: for inhibition: CHO-K1, concentration not given here.
Series [2] is described as follows: Plasma protein binding in rat. The conditions noted are these: read-out: PPB (converted). The format is ADME, cell-free.
Series [3] is filed under the species Homo sapiens. The series is described as follows: Plasma protein binding in human. The conditions noted are these: read-out: PPB (converted).
In series [4] the test system is Liver microsomes. The series is described as follows: Metabolic stability in human liver microsomes. The format is ADME, Microsome.
The species entered for series [5] is Homo sapiens. Description: Stability in human plasma for 30 mins.
For series [6], the system named is Liver microsomes. The series is described as follows: Metabolic stability in rat liver microsomes. It is filed as ADME, Microsome. On the technique in general: Liver microsomes are a subcellular fraction often used to study metabolism.
Series [7] is described as follows: Stability in rat plasma for 30 mins. The conditions noted are these: read-out: Stability. It is filed as ADME, cell-free.

Cannabinoid receptor 1, sequence (P21554 whole entry): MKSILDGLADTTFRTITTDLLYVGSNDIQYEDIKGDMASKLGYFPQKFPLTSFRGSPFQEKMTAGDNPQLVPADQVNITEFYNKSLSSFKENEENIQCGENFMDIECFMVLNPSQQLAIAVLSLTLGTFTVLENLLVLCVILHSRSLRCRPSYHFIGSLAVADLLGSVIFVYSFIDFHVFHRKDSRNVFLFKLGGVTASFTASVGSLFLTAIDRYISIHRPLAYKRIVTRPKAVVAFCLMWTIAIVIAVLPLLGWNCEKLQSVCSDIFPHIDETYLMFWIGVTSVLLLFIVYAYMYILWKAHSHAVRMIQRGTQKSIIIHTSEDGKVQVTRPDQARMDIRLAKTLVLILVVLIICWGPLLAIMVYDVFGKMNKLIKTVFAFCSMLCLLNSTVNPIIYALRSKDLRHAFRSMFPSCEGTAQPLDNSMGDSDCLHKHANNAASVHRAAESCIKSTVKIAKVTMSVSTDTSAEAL

As usually defined, the inhibition is the relative decrease from the control value, in per cent. `CCOC(=O)c1c(NC(=O)Cc2ccccc2)sc2c1CCN(C(=O)OCC)C2`: the inhibition in series [1] turned out to be 94%.

Consider `O=C(NC[C@@H]1CCCO1)c1nc(-c2ccc(Cl)cc2)n2c1CCCCC2`, for which, in series [1], the inhibition is 63%.

One may read the IC50 as the concentration needed to halve the response being measured. For the molecule `O=C1N=C(Nc2cccc(C(F)(F)F)c2)S/C1=C\c1cccnc1`, the fraction unbound was 0.034 in series [2] and 0.058 in series [3]. The Stability worked out at 87% in series [4] and 96.1% in series [6]. The IC50 in series [1] was 0.125 µM. Also, the remaining at 0.5 h in series [5] and in series [7] was greater than 99% each time.

For `COC(=O)c1ccc([C@@H]2CC(=O)N3C(=C2C#N)SC[C@]3(O)c2ccc(C)cc2)cc1`, the inhibition in series [1] was found to be 83%.

Regarding `Cc1ccc(-n2nc3c(c2NC(=O)c2ccco2)CS(=O)(=O)C3)c(C)c1`, in series [1], the inhibition amounted to 90%.

In turn, `C=C(C)Cn1c(SCC(=O)OC)nc2sc3c(c2c1=O)CC(C)(C)OC3` returned an IC50 in series [1] of 0.29 µM.

As to `COC(=O)c1cc(S(=O)(=O)N2CCn3c2nc2ccccc23)c[nH]1`, in series [1], the inhibition came out at 102%.
